From patent US11096939B2, “KRAS G12C inhibitors and methods of using the same” (Amgen Inc., priority 2018, dated 2021)
Where two headings read alike, the source gives them in different places.

Legend:
[1] = biological target: GDP-bound KRAS protein (aa 1-169), containing both G12C and C118A amino acid substitutions (Homo sapiens, UniProt P01116, C118A/G12C); assay: Coupled nucleotide exchange assay (SOS-mediated, AlphaScreen); assay type: biochemical; conditions: compound pre-incubation either 5 min or 2 hours (not stated per value); SOS and GTP added, cRAF AlphaScreen readout
GDP-bound KRAS protein (aa 1-169), containing both G12C and C118A amino acid substitutions, sequence (P01116 1-169 isoform P01116-2 G12C/C118A): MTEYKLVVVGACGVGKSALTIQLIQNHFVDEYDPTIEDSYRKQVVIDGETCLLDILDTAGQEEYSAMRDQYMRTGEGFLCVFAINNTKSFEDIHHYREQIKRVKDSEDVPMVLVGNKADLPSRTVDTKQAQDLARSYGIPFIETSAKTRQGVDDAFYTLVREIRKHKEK
Protocol: Coupled Nucleotide Exchange Assay:
Following compound pre-incubation, purified SOS protein (aa 564-1049) and GTP (Roche 10106399001) were added to the assay wells and incubated for an additional 30 min (for 5 min compound pre-incubation) or 1 hour (for 2 hour compound pre-incubation). To determine the extent of inhibition of SOS-mediated nucleotide exchange, purified GST-tagged cRAF (aa 1-149), nickel chelate AlphaLISA acceptor beads (PerkinElmer AL108R), and AlphaScreen glutathione donor beads (PerkinElmer 6765302) were added to the assay wells and incubated for 10 minutes. The assay plates were then read on a PerkinElmer EnVision Multilabel Reader, using AlphaScreen® technology, and data were analyzed using a 4-parameter logistic model to calculate IC50 values.

[2] = tested on: Phosphorylation of ERK1/2 in MIA PaCa-2 cells; assay: Phospho-ERK1/2 MSD assay; assay type: cell-based; conditions: compound 2 or 4 hours, 10 ng/mL EGF for 10 min, read-out: p-ERK IC50 (MIA-PaCa-2)
Protocol: Phospho-ERK1/2 MSD Assay:
MIA PaCa-2 (ATCC® CRL-1420™)-cells were cultured in RPMI 1640 Medium (ThermoFisher Scientific 11875093) containing 10% fetal bovine serum (ThermoFisher Scientific 16000044) and 1× penicillin-streptomycin-glutamine (ThermoFisher Scientific 10378016). Sixteen hours prior to compound treatment, MIA PaCa-2 cells were seeded in 96-well cell culture plates at a density of 25,000 cells/well and incubated at 37° C., 5% CO2. A compound dose-response titration was diluted in growth media, added to appropriate wells of a cell culture plate, and then incubated at 37° C., 5% CO2 for 2 or 4 hours. Following compound treatment, cells were stimulated with 10 ng/mL EGF (Roche 11376454001) for 10 min, washed with ice-cold Dulbecco's phosphate-buffered saline, no Ca^2+ or Mg^2+ (ThermoFisher Scientific 14190144), and then lysed in RIPA buffer (50 mM Tris-HC pH 7.5, 1% Igepal, 0.5% sodium deoxycholate, 150 mM NaCl, and 0.5% sodium dodecyl sulfate) containing protease inhibitors (Roche 4693132001) and phosphatase inhibitors (Roche 4906837001). Phosphorylation of ERK1/2 in compound-treated lysates was assayed using Phospho-ERK1/2 Whole Cell Lysate kits (Meso Scale Discovery KI51DWD) according to the manufacturer's protocol. Assay plates were read on a Meso Scale Discovery Sector Imager 6000, and data were analyzed using a 4-parameter logistic model to calculate IC50 values.

[3] = Homo sapiens, MIA PaCa-2, MIA PaCa-2 cells

Coupled Exchange IC50 [1] [µM] | IC50 ([2]; MIA PaCa-2 cells) [µM] | IC50 [2, 3] [µM] | SMILES
2.68 |  |  | C=CC(=O)N1C[C@H](C)N(C2=NC(=O)C(C)(C3CCCC3)c3nc(-c4ccccc4F)c(Cl)cc32)C[C@H]1C (mixture of isomers) [Example 1-1, 5-((2S,5R)-4-Acryloyl-2,5-dimethylpiperazin-1-yl)-3-chloro-8-cyclopentyl-2-(2-fluorophenyl)-8-methyl-1,6-naphthyridin-7(8H)-one]
250 |  |  | C=CC(=O)N1C[C@H](C)N(C2=NC(=O)C(C)(C3CCCC3)c3nc(-c4ccccc4F)c(Cl)cc32)C[C@H]1C (single isomer, unassigned) [Example 1-1-1]
1.43 |  |  | C=CC(=O)N1C[C@H](C)N(C2=NC(=O)C(C)(C3CCCC3)c3nc(-c4ccccc4F)c(Cl)cc32)C[C@H]1C (single isomer, unassigned) [Example 1-1-2]
5.15 | 1.45 |  | C=CC(=O)N1C[C@H](C)N(C2=NC(=O)C(C)(C3CC3)c3nc(-c4ccccc4F)c(Cl)cc32)C[C@H]1C (single isomer, unassigned) [Example 1-2-1]
>250 |  |  | C=CC(=O)N1C[C@H](C)N(C2=NC(=O)C(C)(C3CC3)c3nc(-c4ccccc4F)c(Cl)cc32)C[C@H]1C (single isomer, unassigned) [Example 1-2-2]
201 |  |  | C=CC(=O)N1C[C@H](C)N(C2=NC(=O)C(C)(C3CCC3)c3nc(-c4ccccc4F)c(Cl)cc32)C[C@H]1C (single isomer, unassigned) [Example 1-3-1]
0.55 |  | 0.35 | C=CC(=O)N1C[C@H](C)N(C2=NC(=O)C(C)(C3CCC3)c3nc(-c4ccccc4F)c(Cl)cc32)C[C@H]1C (single isomer, unassigned) [Example 1-3-2]
11.2 |  | 2.74 | C=CC(=O)N1C[C@H](C)N(C2=NC(=O)C(C)(CC)c3nc(-c4ccccc4F)c(Cl)cc32)C[C@H]1C (single isomer, unassigned) [Example 1-4-1]
139 |  |  | C=CC(=O)N1C[C@H](C)N(C2=NC(=O)C(C)(CC)c3nc(-c4ccccc4F)c(Cl)cc32)C[C@H]1C (single isomer, unassigned) [Example 1-4-2]
186 |  |  | C=CC(=O)N1C[C@H](C)N(C2=NC(=O)C(C)(c3ccccc3)c3nc(-c4ccccc4F)c(Cl)cc32)C[C@H]1C (single isomer, unassigned) [Example 1-5-1]
14.9 |  |  | C=CC(=O)N1C[C@H](C)N(C2=NC(=O)C(C)(c3ccccc3)c3nc(-c4ccccc4F)c(Cl)cc32)C[C@H]1C (single isomer, unassigned) [Example 1-5-2]
5.28 | 1.72 |  | C=CC(=O)N1C[C@H](C)N(C2=NC(=O)C3(CCc4ccccc43)c3nc(-c4ccccc4F)c(Cl)cc32)C[C@H]1C (single isomer, unassigned) [Example 1-7-1]
7.74 | 3.26 |  | C=CC(=O)N1C[C@H](C)N(C2=NC(=O)C3(CCc4ccccc43)c3nc(-c4ccccc4F)c(Cl)cc32)C[C@H]1C (single isomer, unassigned) [Example 1-7-2]
53.8 |  |  | C=CC(=O)N1C[C@H](C)N(C2=NC(=O)C(C)(CC(C)C)c3nc(-c4ccccc4F)c(Cl)cc32)C[C@H]1C (single isomer, unassigned) [Example 1-8-1]
4.95 | 1.62 |  | C=CC(=O)N1C[C@H](C)N(C2=NC(=O)C(C)(CC(C)C)c3nc(-c4ccccc4F)c(Cl)cc32)C[C@H]1C (single isomer, unassigned) [Example 1-8-2]
94.7 |  |  | C=CC(=O)N1CCN(C2=NC(=O)C(C)(CC(C)C)c3nc(-c4ccccc4F)c(Cl)cc32)[C@@H](C)C1 (single isomer, unassigned) [Example 3-1-1]
13.3 |  | 1.77 | C=CC(=O)N1CCN(C2=NC(=O)C(C)(CC(C)C)c3nc(-c4ccccc4F)c(Cl)cc32)[C@@H](C)C1 (single isomer, unassigned) [Example 3-1-2]
20.1 |  | 1.63 | C=CC(=O)N1C[C@H](C)N(C2=NC(=O)C(C)(C3CC3)c3nc(-c4ccccc4F)c(Cl)cc32)C[C@H]1C (stereo partly drawn) [Example 1-2, 5-((2S,5R)-4-Acryloyl-2,5-dimethylpiperazin-1-yl)-3-chloro-8-cyclopropyl-2-(2-fluorophenyl)-8-methyl-1,6-naphthyridin-7(8H)-one]
1.69 |  | 0.95 | C=CC(=O)N1C[C@H](C)N(C2=NC(=O)C(C)(C3CCC3)c3nc(-c4ccccc4F)c(Cl)cc32)C[C@H]1C (stereo partly drawn) [Example 1-3, 5-((2S,5R)-4-Acryloyl-2,5-dimethylpiperazin-1-yl)-3-chloro-8-cyclobutyl-2-(2-fluorophenyl)-8-methyl-1,6-naphthyridin-7(8H)-one]
19.3 |  |  | C=CC(=O)N1C[C@H](C)N(C2=NC(=O)C(C)(CC)c3nc(-c4ccccc4F)c(Cl)cc32)C[C@H]1C (stereo partly drawn) [Example 1-4, 5-((2S,5R)-4-Acryloyl-2,5-dimethylpiperazin-1-yl)-3-chloro-8-ethyl-2-(2-fluorophenyl)-8-methyl-1,6-naphthyridin-7(8H)-one]
25.9 |  |  | C=CC(=O)N1C[C@H](C)N(C2=NC(=O)C(C)(c3ccccc3)c3nc(-c4ccccc4F)c(Cl)cc32)C[C@H]1C (stereo partly drawn) [Example 1-5, 5-((2S,5R)-4-Acryloyl-2,5-dimethylpiperazin-1-yl)-3-chloro-2-(2-fluorophenyl)-8-methyl-8-phenyl-1,6-naphthyridin-7(8H)-one]
7.28 |  | 3.31 | C=CC(=O)N1C[C@H](C)N(C2=NC(=O)C3(CCCCC3)c3nc(-c4ccccc4F)c(Cl)cc32)C[C@H]1C [Example 1-6, 5′-((2S,5R)-4-Acryloyl-2,5-dimethylpiperazin-1-yl)-3′-chloro-2′-(2-fluorophenyl)-7′H-spiro[cyclohexane-1,8′-[16,]naphthyridin]-7′-one]
8.04 |  | 1.76 | C=CC(=O)N1C[C@H](C)N(C2=NC(=O)C3(CCc4ccccc43)c3nc(-c4ccccc4F)c(Cl)cc32)C[C@H]1C (stereo partly drawn) [Example 1-7, 5′-((2S,5R)-4-Acryloyl-2,5-dimethylpiperazin-1-yl)-3′-chloro-2′-(2-fluorophenyl)-2,3-dihdyro-7′H-spiro[indene-1,8′-[1,6]naphthyridin]-7′-one]
5.78 | 3.69 |  | C=CC(=O)N1C[C@H](C)N(C2=NC(=O)C(C)(CC(C)C)c3nc(-c4ccccc4F)c(Cl)cc32)C[C@H]1C (stereo partly drawn) [Example 1-8, 5-((2S,5R)-4-Acryloyl-2,5-dimethylpiperazin-1-yl)-3-chloro-2-(2-fluorophenyl)-8-isobutyl-8-methyl-1,6-naphthyridin-7(8H)-one]
18.6 |  |  | C=CC(=O)N1C[C@H](C)N(C2=NC(=O)C(C3CC3)(C3CC3)c3nc(-c4ccccc4F)c(Cl)cc32)C[C@H]1C [Example 2-1, 5-((2S,5R)-4-Acryloyl-2,5-dimethylpiperazin-1-yl)-3-chloro-8,8-dicyclopropyl-2-(2-fluorophenyl)-1,6-naphthyridin-7(8H)-one]
3.37 |  | 1.77 | C=CC(=O)N1C[C@H](C)N(C2=NC(=O)C3(Cc4ccccc4C3)c3nc(-c4ccccc4F)c(Cl)cc32)C[C@H]1C [Example 2-2, 5′-((2S,5R)-4-acryloyl-2,5-dimethylpiperazin-1-yl)-3′-chloro-2′-(2-fluorophenyl)-1,3-dihydro-7′H-spiro[indene-2,8′-[1,6]naphthyridin]-7′-one]
14.3 |  |  | C=CC(=O)N1CCN(C2=NC(=O)C(C)(CC(C)C)c3nc(-c4ccccc4F)c(Cl)cc32)[C@@H](C)C1 (stereo partly drawn) [Example 3-1, 5-((S)-4-Acryloyl-2-methylpiperazin-1-yl)-3-chloro-2-(2-fluorophenyl)-8-isobutyl-8-methyl-1,6-naphthyridin-7(8H)-one]
